According to US8299036B2, “Active agent combinations with insecticidal and acaricidal properties” (priority 2003, dated 2012):

Key:
Type in all cases: in vivo
[1] = system: Phaedon cochleariae larvae; experiment: Phaedon cochleariae larvae test (cabbage leaves, dip)
Description: Phaedon cochleariae Larvae Test
(§1) To produce a suitable preparation of active compound, 1 part by weight of active compound is mixed with the stated amounts of solvent and emulsifier, and the concentrate is diluted with emulsifier-containing water to the desired concentration.
Cabbage leaves (Brassica oleracea) are treated by being dipped into the preparation of active compound of the desired concentration and are populated with larvae of the mustard beetle (Phaedon cochleariae) while the leaves are still moist.
After the desired period of time, the kill in % is determined. 100% means that all beetle larvae have been killed; 0% means that none of the beetle larvae have been killed. The kill rates determined are calculated using Colby's formula (see page 44).

[2] = system: Tetranychus urticae (OP-resistant); experiment: Tetranychus urticae test (OP-resistant; dip application)
Description: Tetranychus urticae Test (OP-Resistant; Dip Application)
as §1
Bush beans (Phaseolus vulgaris) which are heavily infested by the greenhouse red spider mite (Tetranychus urticae) are dipped into a preparation of active compound of the desired concentration.
After the desired period of time, the kill in % is determined. 100% means that all spider mites have been killed; 0% means that none of the spider mites have been killed. The kill rates determined are calculated using Colby's formula (see page 44).

Myzus persicae = Myzus persicae test (cabbage leaves, dip); settings: Table C
Description: as §1
Cabbage leaves (Brassica oleracea) which are heavily infested by the green peach aphid (Myzus persicae) are treated by being dipped into the preparation of active compound of the desired concentration.
(§2) After the desired period of time, the kill in % is determined. 100% means that all aphids have been killed; 0% means that none of the aphids have been killed. The kill rates determined are calculated using Colby's formula (see page 44).

Aphis gossypii = Aphis gossypii test (cotton leaves, dip); settings: Table A
Description: To produce a suitable preparation of active compound, 1 part by weight of active compound is mixed with the stated amount of solvent and emulsifier, and the concentrate is diluted with emulsifier-containing water to the desired concentration.
Cotton leaves (Gossypium hirsutum) which are heavily infested by the cotton aphid (Aphis gossypii) are treated by being dipped into the preparation of active compound of the desired concentration.
as §2

Heliothis armigera = Heliothis armigera test (cabbage leaves, dip); settings: for Kill rate in % after 6 d, found: Table B 1; for Kill rate in % after 3 d, found: Table B 2
Description: as §1
Cabbage leaves (Brassica oleracea) are treated by being dipped into the preparation of active compound of the desired concentration and are populated with caterpillars of the cotton boll worm (Heliothis armigeia) while the leaves are still moist.
After the desired period of time, the kill in % is determined. 100% means that all caterpillars have been killed; 0% means that none of the caterpillars have been killed. The kill rates determined are calculated using Colby's formula (see page 44).

Compound: Cc1cc(C)c(C2=C(OC(=O)CC(C)(C)C)C3(CCCC3)OC2=O)c(C)c1 [Example I-1]
- Kill rate in % after 4 d, found ([1]; Table D 2, 100 ppm): 45%
- Kill rate in % after 7 d, found ([2]; Table E 2, 0.8 ppm): 65%

Compound: O=S1OCC2C(CO1)C1(Cl)C(Cl)=C(Cl)C2(Cl)C1(Cl)Cl (stereo not shown) [(2-20) endosulfan, endosulfan, reference compound]
- Kill rate in % after 6 d, found (Myzus persicae; 20 ppm): 15%

Compound: Cc1cc(Cl)cc(C(=O)NC(C)C)c1NC(=O)c1cc(C(F)(F)F)nn1-c1ncccc1Cl [II-1-9]
- Kill rate in % after 1 d, found (Aphis gossypii; 4 ppm): 10%
- Kill rate in % after 6 d, found (Heliothis armigera; 0.0064 ppm): 30%
- Kill rate in % after 3 d, found (Heliothis armigera; 0.0064 ppm): 10%
- Kill rate in % after 6 d, found (Myzus persicae; 4 ppm): 25%
- Kill rate in % after 4 d, found ([1]; Table D 1, 0.16 ppm): 0%
- Kill rate in % after 4 d, found ([1]; Table D 2, 0.16 ppm): 5%
- Kill rate in % after 7 d, found ([2]; Table E 1, 100 ppm): 0%
- Kill rate in % after 7 d, found ([2]; Table E 2, 100 ppm): 0%

Compound: abamectin [(2-2) abamectin, reference compound]
- Kill rate in % after 6 d, found (Heliothis armigera; 0.16 ppm): 50%

Compound: CC(C)c1cc(Oc2ccccc2)cc(C(C)C)c1NC(=S)NC(C)(C)C [(2-5) diafenthiuron, diafenthiuron, reference compound]
- Kill rate in % after 1 d, found (Aphis gossypii; 20 ppm): 15%

Compound: CCC(C)(C)C(=O)OC1=C(c2ccc(Cl)cc2Cl)C(=O)OC12CCCCC2 [Example I-2]
- Kill rate in % after 4 d, found ([1]; Table D 1, 100 ppm): 0%
- Kill rate in % after 7 d, found ([2]; Table E 1, 0.8 ppm): 0%

Compound: spinosad [(2-17) spinosad, reference compound]
- Kill rate in % after 3 d, found (Heliothis armigera; 0.032 ppm): 0%
